These are literature values, as cited in article PMC10694761 (Cell Reports Medicine, 2023).

The conditions of series [1]: rats.
For series [2] the following is noted: micromolar concentrations.
The conditions of series [3]: humans.

As for Liraglutide, in series [1], the “half-life of absorption from the s.c. space (t1/2, s.c.)” value is approximately 9.6 min and the “half-life of elimination from the systemic circulation (t1/2, serum)” value is approximately 4.01 h. In series [2], the self-association state entry was “heptameric structures”. The “t1/2, serum” value in series [3] was approximately 13 h.
